Source: patent US8765746B2 (Millennium Pharmaceuticals, Inc., priority 2010, dated 2014)

What was measured:
[1] = target: T1, PI3Kalpha (Homo sapiens, UniProt P42336); test: Human PI3Kα enzyme assay (HTRF); assay type: biochemical; conditions: for inhibition at 1.11 µM: read-out: PI3Kalpha % inh; for PI3Kalpha % inh: at 1.11 μM
T1 construct: His (N); host or cells: SF9 insect cells (baculovirus)
From the text: (§1) The catalytic subunits of PI3Ks are cloned into either pDEST8(p110 alpha) or pDEST10(p110beta, p110delta, and p110gamma) as N-terminal His tagged fusion proteins using the Gateway system (Invitrogen, catalog#11804-010 for pDEST8 and 11806-015 for pDEST10). The sequences are verified before recombinant protein expression using the Baculovirus Expression System with Gateway® Technology. The accession numbers for the subunits are as follows:
(§2) The regulatory subunits of PI3Ks are cloned into pDEST8 as un-tagged protein using the Gateway system (Catalog#11804-010). The sequences are verified before recombinant protein expression using the Baculovirus Expression System with Gateway® Technology. The accession numbers for the subunits are as follows:
(§3) For expression of the p110 complexes, the p85 (MOI of 4) is co-infected with p110 alpha, beta, and delta respectively (1MOI) in SF9 cells and harvested at 60 hours post co-infection. P110 gamma was infected at 1 MOI and harvested at 60 hours post infection.
(§4) For purification, PI3Ks are purified by Ni-NTA Agarose (Qiagen #30250) followed by Mono Q 10/100 GL (Ge Healthcare #17-5167-01). VPS34 is purified by Glutathione Sepharose 4 Fast Flow (GE Healthcare #17-5132-03) followed by HiTrap Q (GE Healthcare #17-1153-01).
1) Human PI3Kα enzyme assay method
(§5) 0.5 uL compounds in DMSO are added to wells of a 384 well microtitre plate (Corning 3575). At room temperature: 10 ul PI3K reaction buffer (50 mM Hepes, 5 mM DTT, 150 mM NaCl, 10 mM beta-glycerophosphate, 10 mM MgCl2, 0.25 mM sodium cholate and 0.001% CHAPS, pH 7.00) containing ATP (25 uM, Promega) is added followed immediately by 10 ul PI3K reaction buffer containing di-C8 PI(4,5)P2 (3.5 uM, CellSignals) and PI3Kalpha (0.4875 nM, Millennium Protein Sciences Group) and the mixture is incubated with shaking at room temperature for 30 minutes. Then 5 ul PI3K stop mix (50 mM Hepes, 5 mM DTT, 150 mM NaCl, 0.01% Tween-20, 15 mM EDTA and 25 nM biotin-PI(3,4,5)P3 (Echelon) is added to quench the reaction followed immediately by addition of 5 ul HTRF detection mix (50 mM Hepes, 5 mM DTT, 150 mM NaCl, 0.01% Tween-20, 40 mM KF, 10 nM GST:GRP-1 PH domain (Millennium Protein Sciences Group), 15 nM Streptavidin-XL (CisBio) and 0.375 nM anti-GST Eu++ antibody (CisBio) at pH 7.00). The plates are then incubated for 1 hour at room temperature with shaking and then read on a BMG PheraStar Plus reader.

[2] = target: T2, PI3Kbeta (Homo sapiens, UniProt P42338); test: Human PI3K beta enzyme assay (HTRF, as for PI3K alpha); assay type: biochemical; conditions: for inhibition at 1.11 µM: read-out: PI3Kbeta % inh; for inhibition at 1.11 µM / PI3Kbeta % inh: at 1.11 μM; for IC50: read-out: IC50 (inhibit PI3Kbeta)
T2 construct: His (N); host or cells: SF9 insect cells (baculovirus)
T2 sequence (P42338 whole entry): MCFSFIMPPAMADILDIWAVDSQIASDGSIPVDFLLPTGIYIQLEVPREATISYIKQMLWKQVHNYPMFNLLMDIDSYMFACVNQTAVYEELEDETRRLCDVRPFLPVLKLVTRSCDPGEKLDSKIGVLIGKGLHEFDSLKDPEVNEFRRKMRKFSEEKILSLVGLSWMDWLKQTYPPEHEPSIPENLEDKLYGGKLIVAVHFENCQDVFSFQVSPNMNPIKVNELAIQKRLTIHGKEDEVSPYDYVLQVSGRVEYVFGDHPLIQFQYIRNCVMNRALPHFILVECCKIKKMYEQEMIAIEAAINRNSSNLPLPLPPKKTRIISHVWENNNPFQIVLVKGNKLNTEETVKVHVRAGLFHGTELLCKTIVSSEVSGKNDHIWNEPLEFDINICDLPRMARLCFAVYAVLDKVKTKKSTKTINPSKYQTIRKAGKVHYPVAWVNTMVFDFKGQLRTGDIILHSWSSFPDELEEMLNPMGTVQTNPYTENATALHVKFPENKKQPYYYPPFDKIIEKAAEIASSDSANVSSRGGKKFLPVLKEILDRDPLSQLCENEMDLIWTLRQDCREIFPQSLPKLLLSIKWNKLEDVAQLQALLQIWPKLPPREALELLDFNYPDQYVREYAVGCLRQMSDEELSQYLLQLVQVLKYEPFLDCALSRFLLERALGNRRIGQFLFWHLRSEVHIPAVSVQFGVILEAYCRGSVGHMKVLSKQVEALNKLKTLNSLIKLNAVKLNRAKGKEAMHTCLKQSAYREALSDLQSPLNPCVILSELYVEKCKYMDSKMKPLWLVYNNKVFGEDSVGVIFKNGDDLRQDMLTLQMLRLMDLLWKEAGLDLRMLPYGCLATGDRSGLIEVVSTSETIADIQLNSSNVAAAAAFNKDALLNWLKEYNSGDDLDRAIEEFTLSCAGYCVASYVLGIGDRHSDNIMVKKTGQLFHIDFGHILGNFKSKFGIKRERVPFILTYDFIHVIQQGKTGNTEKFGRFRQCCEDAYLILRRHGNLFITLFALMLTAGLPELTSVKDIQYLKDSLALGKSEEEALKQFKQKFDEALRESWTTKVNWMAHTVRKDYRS
T2 sequence (P27986 whole entry partner): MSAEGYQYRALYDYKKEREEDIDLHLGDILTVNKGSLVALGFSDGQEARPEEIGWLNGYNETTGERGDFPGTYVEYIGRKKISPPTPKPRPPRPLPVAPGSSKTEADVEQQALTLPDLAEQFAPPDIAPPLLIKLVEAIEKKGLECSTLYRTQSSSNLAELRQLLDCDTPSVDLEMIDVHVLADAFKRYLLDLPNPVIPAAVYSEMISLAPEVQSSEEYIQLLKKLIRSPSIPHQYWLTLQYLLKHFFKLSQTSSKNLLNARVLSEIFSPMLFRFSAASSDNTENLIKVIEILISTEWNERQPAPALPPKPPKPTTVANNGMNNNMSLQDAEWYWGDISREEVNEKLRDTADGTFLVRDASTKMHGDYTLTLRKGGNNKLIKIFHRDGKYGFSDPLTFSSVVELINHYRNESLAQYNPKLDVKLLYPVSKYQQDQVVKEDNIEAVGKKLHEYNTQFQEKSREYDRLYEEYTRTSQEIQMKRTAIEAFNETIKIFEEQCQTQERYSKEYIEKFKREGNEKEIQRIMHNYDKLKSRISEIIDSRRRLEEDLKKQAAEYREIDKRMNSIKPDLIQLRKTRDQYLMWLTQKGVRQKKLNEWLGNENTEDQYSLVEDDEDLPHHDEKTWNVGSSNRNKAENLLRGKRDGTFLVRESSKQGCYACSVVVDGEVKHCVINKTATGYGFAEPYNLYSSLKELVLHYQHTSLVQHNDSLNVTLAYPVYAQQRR
From the text: as §1, §2, §3, §4, §5
2) Human PI3K beta, delta and gamma isoforms are tested using the procedure described for PI3K alpha above but with the following changes: PI3K beta (5.25 nM), PI3K delta (0.75 nM) and PI3K gamma (5 nM). All isoforms supplied by Millennium Protein Science Group.

T1 sequence (P42336 whole entry): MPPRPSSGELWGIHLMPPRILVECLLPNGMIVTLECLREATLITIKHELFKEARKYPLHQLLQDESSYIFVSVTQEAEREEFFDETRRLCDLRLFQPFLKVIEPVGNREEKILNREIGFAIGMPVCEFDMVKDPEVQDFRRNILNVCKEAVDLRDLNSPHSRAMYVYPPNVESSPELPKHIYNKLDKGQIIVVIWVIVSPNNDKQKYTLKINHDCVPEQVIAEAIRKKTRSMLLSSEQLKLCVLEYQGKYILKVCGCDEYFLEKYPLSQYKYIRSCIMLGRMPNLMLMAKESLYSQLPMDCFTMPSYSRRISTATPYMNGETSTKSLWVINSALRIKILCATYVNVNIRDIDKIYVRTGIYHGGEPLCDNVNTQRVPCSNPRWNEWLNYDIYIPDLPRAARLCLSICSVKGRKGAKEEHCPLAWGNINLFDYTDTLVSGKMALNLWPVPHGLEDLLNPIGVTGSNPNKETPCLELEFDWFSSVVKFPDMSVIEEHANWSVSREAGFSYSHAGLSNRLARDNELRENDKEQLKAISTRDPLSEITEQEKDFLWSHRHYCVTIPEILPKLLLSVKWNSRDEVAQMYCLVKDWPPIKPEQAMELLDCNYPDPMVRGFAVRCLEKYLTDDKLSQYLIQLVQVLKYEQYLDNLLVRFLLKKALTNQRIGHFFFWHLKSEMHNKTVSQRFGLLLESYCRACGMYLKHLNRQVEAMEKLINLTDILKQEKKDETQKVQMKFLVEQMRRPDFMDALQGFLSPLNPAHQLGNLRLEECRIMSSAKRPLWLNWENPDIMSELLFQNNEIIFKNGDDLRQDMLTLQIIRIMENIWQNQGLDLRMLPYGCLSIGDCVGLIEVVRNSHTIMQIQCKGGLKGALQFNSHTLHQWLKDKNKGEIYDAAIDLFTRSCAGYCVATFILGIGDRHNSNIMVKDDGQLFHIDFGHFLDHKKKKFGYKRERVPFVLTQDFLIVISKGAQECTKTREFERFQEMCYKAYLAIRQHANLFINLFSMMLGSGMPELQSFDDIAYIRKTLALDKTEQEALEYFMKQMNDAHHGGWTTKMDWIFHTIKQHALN
T1 sequence (P27986 whole entry partner): as the sequence (P27986 whole entry partner) above

| Structure (SMILES) | inhibition at 1.11 µM [1] [%] | inhibition at 1.11 µM [2] [%] | PI3Kalpha % inh [1] [%] | PI3Kbeta % inh [2] [%] | IC50 [2] [µM] |
| --- | --- | --- | --- | --- | --- |
| COC(=O)[C@@H]1NC(=O)c2sc(N3CCOCC3)cc2[C@H]1c1ccc(Cl)c(Cl)c1 (relative stereo) [Compound 127, methyl rel-(4R,5R)-4-(3,4-dichlorophenyl)-2-(morpholin-4-yl)-7-oxo-4,5,6,7-tetrahydrothieno[2,3-c]pyridine-5-carboxylate] | 31.4 | 75.8 |  |  |  |
| CNC(=O)[C@@H]1NC(=O)c2sc(-c3ccnc(C)c3)cc2[C@H]1c1ccc(Cl)cc1 (relative stereo) [Compound 138, rel-(4R,5R)-4-(4-chlorophenyl)-N-methyl-2-(2-methylpyridin-4-yl)-7-oxo-4,5,6,7-tetrahydrothieno[2,3-c]pyridine-5-carboxamide] | 7.29 | 64.6 |  |  |  |
| O=C1N[C@@H](C(=O)O)[C@H](c2ccc(Cl)c(Cl)c2)c2cc(N3CCOCC3)sc21 (relative stereo) [Compound 142, rel-(4R,5R)-4-(3,4-dichlorophenyl)-2-(morpholin-4-yl)-7-oxo-4,5,6,7-tetrahydrothieno[2,3-c]pyridine-5-carboxylic acid] | 16.7 | 72 |  |  |  |
| O=C1CCC(c2ccc(Cl)cc2)c2cc(-c3ccncc3)sc21 (single isomer, unassigned) [Compound 4, 4-(4-chlorophenyl)-2-pyridin-4-yl-5,6-dihydro-1-benzothiophen-7(4H)-one] |  |  | −0.100 | 14.400 | > 1 |
| O=C1NCC(c2ccc(Cl)cc2)c2c1sc(N1CCOCC1)c2C#Cc1ccccc1 (single isomer, unassigned) [Compound 137, 4-(4-chlorophenyl)-2-(morpholin-4-yl)-3-(phenylethynyl)-5,6-dihydrothieno[2,3-c]pyridin-7(4H)-one] | 16.1 | 80.8 |  |  |  |
| C=Cc1c(N2CCOCC2)sc2c1C(c1ccc(Cl)cc1)CNC2=O (single isomer, unassigned) [Compound 143, 4-(4-chlorophenyl)-2-(morpholin-4-yl)-3-vinyl-5,6-dihydrothieno[2,3-c]pyridin-7(4H)-one] | 10 | 82.5 |  |  |  |
| O=C1NCC(c2ccc(Cl)cc2)c2c1sc(N1CCOCC1)c2CO (single isomer, unassigned) [Compound 178, 4-(4-chlorophenyl)-3-(hydroxymethyl)-2-(morpholin-4-yl)-5,6-dihydrothieno[2,3-c]pyridin-7(4H)-one] | 4.71 | 40.2 |  |  |  |
| O=C1NCC(c2ccc(Cl)cc2)c2c1sc(N1CCOCC1)c2Br (single isomer, unassigned) [Compound 181, 3-bromo-4-(4-chlorophenyl)-2-(morpholin-4-yl)-5,6-dihydrothieno[2,3-c]pyridin-7(4H)-one] | 8.59 | 69.5 |  |  |  |
| CC(=O)Nc1cc(-c2cc3c(s2)C(=O)CC3c2ccc(Cl)cc2)ccn1 (stereo not shown) [Compound 16, N-(4-(4-(4-chlorophenyl)-6-oxo-5,6-dihydro-4H-cyclopenta[b]thiophen-2-yl)pyridin-2-yl)acetamide] | 24.5 | 54.5 |  |  | 0.1 to 1 |
| O=C1N[C@@H](CO)CC(c2ccc3ccccc3c2)c2nc(N3CCOCC3)sc21 (stereo partly shown) [Compound 120] |  |  | 12.90 | 44.05 |  |
| O=C1NCC(c2ccc(Cl)cc2)c2c1sc(N1CCOCC1)c2C#Cc1cccnc1 (stereo not shown) [Compound 122] | 97.8 | 128 |  |  |  |
| O=C1NCCC(c2ccc3ccccc3c2)c2nc(N3CCOCC3)sc21 (stereo not shown) [Compound 131] |  |  | 9.87 | 85.03 |  |
| CNC(=O)[C@@H]1NC(=O)c2sc(N3CCOCC3)cc2[C@H]1c1ccc(Cl)c(Cl)c1 [Compound 132] | 54 | 115 |  |  |  |
| N#Cc1c(N2CCOCC2)sc2c1C(c1ccc3ccccc3c1)CNC2=O (stereo not shown) [Compound 135, 2-(morpholin-4-yl)-4-(2-naphthyl)-7-oxo-4,5,6,7-tetrahydrothieno[2,3-c]pyridine-3-carbonitrile] | 89.8 | 121 |  |  |  |
| COC(=O)C1C(=O)c2sc(N3CCOCC3)cc2C1c1ccc(Cl)c(Cl)c1 (stereo not shown) [Compound 139, methyl 4-(3,4-dichlorophenyl)-2-(morpholin-4-yl)-6-oxo-5,6-dihydro-4H-cyclopenta[b]thiophene-5-carboxylate] | 14.4 | 95.6 |  |  |  |
| CNC(=O)[C@H]1NC(=O)c2sc(N3CCOCC3)cc2[C@H]1c1ccc(Cl)cc1 [Compound 157] | 30.1 | 111 |  |  |  |
| CNC(=O)[C@@H]1NC(=O)c2sc(-c3ccncc3)cc2[C@H]1c1ccc(Cl)cc1 [Compound 160] |  |  | 11.18 | 76.80 |  |
| O=C1NCCC(c2ccc3ccncc3c2)c2nc(N3CCOCC3)sc21 (stereo not shown) [Compound 165] | 13.3 | 109 |  |  |  |
| C=CCN1C(=O)c2sc(N3CCOCC3)cc2C(c2ccc(Cl)c(Cl)c2)C1C(=O)OC (stereo not shown) [Compound 166, methyl 6-allyl-4-(3,4-dichlorophenyl)-2-(morpholin-4-yl)-7-oxo-4,5,6,7-tetrahydrothieno[2,3-c]pyridine-5-carboxylate] | 7.59 | 69.2 |  |  |  |
| NC(=O)c1cc(C2CCNC(=O)c3sc(N4CCOCC4)nc32)ccc1Cl (stereo not shown) [Compound 167] | 5.27 | 81.2 |  |  |  |
| O=C1OC2(CCNC(=O)c3sc(N4CCOCC4)nc32)c2ccc(Cl)cc21 (stereo not shown) [Compound 172, 5-chloro-2′-(morpholin-4-yl)-6′,7′-dihydro-3H-spiro[2-benzofuran-1,8′-[1,3]thiazolo[5,4-c]azepine]-3,4′(5′H)-dione] | 16.1 | 49.3 |  |  |  |

The next lines start with the values.

| inhibition at 1.11 µM [1] [%] | inhibition at 1.11 µM [2] [%] | PI3Kalpha % inh [1] [%] | PI3Kbeta % inh [2] [%] | IC50 [2] [µM] | Structure (SMILES) |
| --- | --- | --- | --- | --- | --- |
| 11.1 | 79.1 |  |  |  | O=Cc1c(N2CCOCC2)sc2c1C(c1ccc(Cl)cc1)CNC2=O (single isomer, unassigned) [Compound 193, 4-(4-chlorophenyl)-2-(morpholin-4-yl)-7-oxo-4,5,6,7-tetrahydrothieno[2,3-c]pyridine-3-carbaldehyde] |
| -3.8 | 32.8 |  |  | > 1 | CC1(C)CC(=O)c2sc(-c3ccncc3)cc2C1(O)c1ccc(Cl)cc1 (stereo not shown) [Compound 5, 4-(4-chlorophenyl)-4-hydroxy-5,5-dimethyl-2-pyridin-4-yl-5,6-dihydro-1-benzothiophen-7(4H)-one] |
| 8.7 | 31.9 |  |  | > 1 | O=C1OC2(CCC(=O)c3sc(-c4ccncc4)cc32)c2ccc(Cl)cc21 (stereo not shown) [Compound 14, 5-chloro-2′-pyridin-4-yl-5′,6′-dihydro-3H,7′H-spiro[2-benzofuran-1,4′-[1]benzothiophene]-3,7′-dione] |
|  |  | 36.43 | 66.61 |  | N#Cc1c(N2CCOCC2)sc2c1C(c1ccc(Cl)c(Cl)c1)CCNC2=O (stereo not shown) [Compound 116] |
|  |  | 40.77 | 104.98 |  | CNC(=O)[C@@H]1NC(=O)c2sc(C3=CCOCC3)cc2[C@H]1c1ccc(Cl)cc1 [Compound 121] |
| 58.1 | 116 |  |  |  | CN(C)CC#Cc1c(N2CCOCC2)sc2c1C(c1ccc(Cl)cc1)CNC2=O (stereo not shown) [Compound 130] |
| 10.9 | 75.5 |  |  |  | C=CCC1(C(=O)OC)NC(=O)c2sc(N3CCOCC3)cc2C1c1ccc(Cl)c(Cl)c1 (stereo not shown) [Compound 154, methyl 5-allyl-4-(3,4-dichlorophenyl)-2-(morpholin-4-yl)-7-oxo-4,5,6,7-tetrahydrothieno[2,3-c]pyridine-5-carboxylate] |
| 67.2 | 118 |  |  |  | N#Cc1c(N2CCOCC2)sc2c1C(c1ccc(Cl)c(Cl)c1)CNC2=O (stereo not shown) [Compound 159] |
| 74.5 | 117 |  |  |  | CNC(=O)c1[nH]c(=O)c2sc(N3CCOCC3)cc2c1-c1ccc(Cl)cc1 [Compound 168] |
